These results are taken from patent US20040076586A1, “Compositions and methods for delivering pharmaceutically active agents using nanoparticulates” (priority 2002, published 2004).

SMILES strings stand for the structures.

As for `CCOC(=O)CCCCCOC(=O)c1c(I)c(NC(C)=O)c(I)c(NC(C)=O)c1I` [PH-50, 6-ethoxy-6-oxohexy-3,5-bis(acetylamino)-2,4,6-triiodobenzoate], for the setting “at functionally active concentrations, until metabolized by the liver”, the “half-life in the vascular structures” value lay in the range of 30 to 60 min. Moreover, the route of excretion result (in vivo) was “excreted from the body via the hepatic system rather than the renal system”.
